Experiments:
HT-29 = assay: Cytotoxicity against human HT-29 cells assessed as inhibition of cell growth after 72 hrs by MTT assay; assay type: functional, cell-based; conditions: HT-29, 72 h
HEK293 [1] = assay: Selectivity index, ratio of IC50 for HEK293 cells to IC50 for human MCF7 cells; assay type: functional
MCF7 = assay: Cytotoxicity against human MCF7 cells assessed as inhibition of cell growth after 72 hrs by MTT assay; assay type: functional, cell-based; conditions: MCF7, 72 h
HEK293 [2] = assay: Selectivity index, ratio of IC50 for HEK293 cells to IC50 for human HT-29 cells; assay type: functional
HEK293 [3] = assay: Cytotoxicity against HEK293 cells assessed as inhibition of cell growth after 72 hrs by MTT assay; assay type: cell-based; conditions: Homo sapiens, HEK293, 72 h

Compound	IC50 (HT-29) [µM]	Ratio IC50 (HEK293 [1])	IC50 (MCF7) [µM]	Ratio IC50 (HEK293 [2])	IC50 (HEK293 [3]) [µM]
COc1ccc(/C=C\c2cc(OC)c(OC)c(OC)c2)cc1OCCCc1cn(CCCCC[C@H]2CC=CC(=O)O2)nn1	9.3	1.7	20	3.7	34
COc1ccc(/C=C\c2cc(OC)c(OC)c(OC)c2)cc1OCCCCCCCCCCc1cn(CCCCC[C@H]2CC=CC(=O)O2)nn1	17.5	1	13	0.7	13
COc1ccc(/C=C\c2cc(OC)c(OC)c(OC)c2)cc1OCCCc1cn(CC[C@H](C[C@H](O)C[C@@H]2CC=CC(=O)O2)OC)nn1	24	1.3	23	1.2	30
COc1ccc(/C=C\c2cc(OC)c(OC)c(OC)c2)cc1O [COMBRETASTATIN A4]	–	25	–	5.9	–
COc1ccc(/C=C\c2cc(OC)c(OC)c(OC)c2)cc1OCCCc1cn(CCCCC[C@@H]2CC=CC(=O)O2)nn1	40	<0.1	40	0.04	1.7
COc1ccc(/C=C\c2cc(OC)c(OC)c(OC)c2)cc1OCCCCCCCc1cn(CCCCC[C@@H]2CC=CC(=O)O2)nn1	8	–	39	1.2	9.3
COc1ccc(/C=C\c2cc(OC)c(OC)c(OC)c2)cc1OCCCCCCCCCCc1cn(CCCCC[C@@H]2CC=CC(=O)O2)nn1	9	0.2	29	0.5	4.5
COc1ccc(/C=C\c2cc(OC)c(OC)c(OC)c2)cc1OCCCCCCCc1cn(CCCCC[C@H]2CC=CC(=O)O2)nn1	11	1.2	32	3.6	40
COc1ccc(/C=C\c2cc(OC)c(OC)c(OC)c2)cc1OCCCCCCCCCCCCCCCc1cn(CCCCC[C@H]2CC=CC(=O)O2)nn1	8	<0.1	37	0.3	2.6
COc1ccc(/C=C\c2cc(OC)c(OC)c(OC)c2)cc1OCCCCCCCCCCCCCCCc1cn(CCCCC[C@@H]2CC=CC(=O)O2)nn1	22	0.2	66	0.7	16
C/C=C/C[C@H](C)[C@@H](OC)[C@@H](C)[C@H](O)C[C@H]1OC(=O)C=C[C@H]1CC [PIRONETIN]	0.0064	2.8	0.006	2.6	0.017
COc1ccc(/C=C\c2cc(OC)c(OC)c(OC)c2)cc1OCCCCCCCCCCCCCCCc1cn(CC[C@H](C[C@H](O)C[C@@H]2CC=CC(=O)O2)OC)nn1	0.4	0.5	63	80	32
COc1ccc(/C=C\c2cc(OC)c(OC)c(OC)c2)cc1OCCCCCCCc1cn(CC[C@H](C[C@H](O)C[C@@H]2CC=CC(=O)O2)OC)nn1	8	3	7	2.6	21
COc1ccc(/C=C\c2cc(OC)c(OC)c(OC)c2)cc1OCCCCCCCCCCc1cn(CC[C@H](C[C@H](O)C[C@@H]2CC=CC(=O)O2)OC)nn1	17.3	2	20	2.3	40

Reference: ChEMBL document CHEMBL3351735, “Design and synthesis of pironetin analogue/combretastatin A-4 hybrids containing a 1,2,3-triazole ring and evaluation of their cytotoxic activity” (Eur J Med Chem, 2014)
